Structures are written as SMILES. Values after ≈ are worked out from the molar mass of the structure shown.

Consider 6 compounds from ChEMBL document CHEMBL3425412, “Additional sesterterpenes and a nortriterpene saponin from the sponge Clathria gombawuiensis” (2015).

Format in all cases: functional
One experiment has as its system Staphylococcus aureus. Kind of experiment: Antimicrobial activity against Staphylococcus aureus ATCC 6538p after 24 hrs by twofold dilution method.
The test system of another experiment is K562. Kind of experiment: Cytotoxicity against human K562 cells. As to conditions: read-out: LC50 (the source's name).
The next experiment relates to Proteus hauseri. The experiment can be described thus: Antimicrobial activity against Proteus hauseri NBRC 3851 after 24 hrs by twofold dilution method. The note with it: NBRC 3851, 24 h.
The test system of the next experiment is A549. Kind of experiment: Cytotoxicity against human A549 cells. As to conditions: read-out: LC50 (the source's name).
The test system of another experiment is Bacillus subtilis. Kind of experiment: Antimicrobial activity against Bacillus subtilis ATCC 6633 after 24 hrs by twofold dilution method. As to conditions: ATCC 6633, 24 h.
For the next experiment, the system named is Kocuria rhizophila. The experiment can be described thus: Antimicrobial activity against Kocuria rhizophila NBRC 12708 after 24 hrs by twofold dilution method. The note with it: NBRC 12708, 24 h.
For a further experiment, the system named is Salmonella enterica. The experiment can be described thus: Antimicrobial activity against Salmonella enterica ATCC 14028 after 24 hrs by twofold dilution method. As to conditions: ATCC 14028, 24 h.

For `CC1=CC(=O)[C@@H]2[C@@]3(C)CCCC(C)(C)[C@@H]3[C@@H](O)C[C@]2(C)c2c1ccc(C)c2O`, the MIC against Staphylococcus aureus and in the experiment on Proteus hauseri was > 100 µg/mL throughout. Further, the CC50 was 5.4 µM with K562 and 4.7 µM with A549.

For `C=C1/C=C\[C@@H]2[C@@]3(C)CCCC(C)(C)[C@@H]3[C@H](O)C[C@@]2(C)O[C@@H]2C=C(C)C(=O)C[C@H]12`, the MIC in the experiment with Staphylococcus aureus and against Proteus hauseri was > 100 µg/mL each time. The CC50 in the experiment with K562 is 4.5 µM; in the experiment with A549, 3.9 µM.

With `CC(=O)[C@H]1CC[C@@]2(C)C3=C(CC[C@]12C)[C@@]1(C)CCC(O[C@@H]2O[C@H](C(=O)O)[C@@H](O)[C@H](OS(=O)(=O)[O-])[C@H]2O)C(C)(C)[C@@H]1CC3.[Na+]` (some centres undefined), the MIC is > 100 µg/mL with Staphylococcus aureus; 1.6 µg/mL against Bacillus subtilis; > 100 µg/mL against Kocuria rhizophila; > 100 µg/mL against Salmonella enterica; 3.1 µg/mL in the experiment with Proteus hauseri. Further, the results for the CC50 in the experiment on K562 and in the experiment with A549 were 1.8 µM and 2.1 µM, respectively.

On to `COc1c(C)ccc2c1[C@@]1(C)C[C@H](O)[C@H]3C(C)(C)CCC[C@]3(C)[C@H]1C(=O)C=C2C`, for which the CC50 in the experiment with K562 and in the experiment on A549 was > 100 µM each time.

For the compound `CC1(C)S[C@@H]2[C@H](NC(=O)[C@H](N)c3ccccc3)C(=O)N2[C@H]1C(=O)O` [AMPICILLIN], the MIC is 0.4 µg/mL (≈ 1.14 µM) in the experiment with Staphylococcus aureus; 0.4 µg/mL (≈ 1.14 µM) with Bacillus subtilis; 0.4 µg/mL (≈ 1.14 µM) against Kocuria rhizophila; 0.8 µg/mL (≈ 2.29 µM) against Salmonella enterica; 0.4 µg/mL (≈ 1.14 µM) against Proteus hauseri.

On to `COc1cccc2c1C(=O)c1c(O)c3c(c(O)c1C2=O)C[C@@](O)(C(=O)CO)C[C@@H]3O[C@H]1C[C@H](N)[C@H](O)[C@H](C)O1` [DOXORUBICIN], for which the CC50 worked out at 1.5 µM with K562 and 1.1 µM in the experiment with A549.

A word on the MIC: it is the lowest concentration that inhibits growth of the organism. Low readings indicate inhibition by little substance, high ones a need for much substance.
